Experimental data reported in paper PMC11200018 (2024).

Tests used:
[1] = tested on: 32BrTelQD (DNA, G4, 8-bromo-2'-deoxyguanosine at 32) GGGCGCGAAGCATTCGCGGGGTTAGGGTTAGGG; test: NMR titration and induced CD; details: 120 mM K+; 120 mM K+ buffer, pH 7.0; incomplete refolding, polymorphic complex
[2] = tested on: TelQD31 (DNA, G4) GGGCGCGAAGCATTCGCGGGGTTAGGGTGGG; test: NMR titration; details: 120 mM K+; 120 mM K+ buffer, pH 7.0; binding at quadruplex-duplex junction
[3] = tested on: TelQD (DNA, G4) GGGCGCGAAGCATTCGCGGGGTTAGGGTTAGGG; test: NMR solution structure; details: 120 mM K+; 20 mM potassium phosphate, 100 mM KCl, pH 7.0, 25 °C; refolds to (3+1) hybrid-2

Measured: binding

C[n+]1cc(NC(=O)c2ccc3ccc4ccc(C(=O)Nc5cc6ccccc6[n+](C)c5)nc4c3n2)cc2ccccc21
yes: all assays above
